Experimental data as given in patent US20230026259A1, “CA2 COMPOSITIONS AND METHODS FOR TUNABLE REGULATION” (Obsidian Therapeutics, Inc., priority 2019, published 2023).
Values belong to the compound of their own block, whether it stands above or below them.

Tests used:
[1] = test system: NIH3T3 cells; assay: Destabilization mutant screening of human CA2 linked to GFP, ligand response by FACS (Valdecoxib, Celecoxib, Acetazolamide); assay type: cell-based
[2] = test system: NIH3T3 cells; assay: as above; assay type: cell-based; remark: listed apart in the source
Experimental: To identify destabilizing mutations of human CA2 that are stabilized upon ligand binding to CA2, two rounds of mutant screening were performed, using a lentivirus CA2 mutant library provided by Genscript (China). These methods were used to generate a library of mutant polypeptides using mutagenesis primers and error prone PCR. Lentiviral vectors expressing the template, wild-type human CA2 operably linked to GFP(OT-001986) was also provided by Genscript along with the CA2 mutant library. The library was packaged into lentivirus, transduced into NIH3T3 cells at a multiplicity of infection (MOI) of approximately 0.3 and select stable cell pools were derived by selecting with selection marker puromycin.
To identify cell pools containing destabilizing mutants of CA2 that are stabilizing when CA2 is bound to its corresponding ligand, cells were sorted using FACS. In the initial round, the bottom 15% of population that was GFP negative in the absence of ligand was selected. Cells were expanded and then treated with 10 μM Celecoxib for 24 hours and harvested for cell sorting. The top 11% GFP positive cells which were also responsive to ligand treatment compared to untreated were collected. Celecoxib was removed from the cultures and replaced with DMSO. […] Genomic DNA was isolated and amplified CA2 mutants were reintroduced to the lentiviral vectors where CA2 was operably linked to GFP. The constructs were transduced into NIH3T3 cells with lentivirus vectors for each clone. The cells were treated with 10 μM Valdecoxib or 10 μM Celecoxib for 24 hours and analyzed by FACS. […] In Table 25, the Construct ID (OT-XXXXXX) refers to the construct which includes the referenced CA2 mutant and the Library ID (LibCXXXXXX) refers to the CA2 mutant itself.
The response of NIH3T3 cells to varying doses of Valdecoxib or Celecoxib for 24 hours was measured and analyzed by FACS.
Clones treated with different ligands were compared to examine the behavior of each mutant with the ligands.

[3] = test system: NIH3T3 cells; assay: Immunoblotting of cell lysates for GFP after ligand treatment; assay type: cell-based; conditions: 24 hours
Experimental: The protein expression in the presence of ligand was measured by immunoblotting the cell lysates for GFP.
The protein expression in the presence of ligand was measured by immunoblotting cell lysates for GFP.

[4] = Body weights after repeated daily doses of acetazolamide
Experimental: Body weights were measured for up to 12 days post daily repeated doses on days 0-4 and 8-11 (data not shown).
Dose responsiveness of OT-002175 was tested by measuring total flux in mice receiving repeated ligand dosing for up to 32 days post tumor implant (data not shown).

[5] = test system: human primary T cells; assay: IL15-dependent expansion: T cell numbers and CD4/CD8 ratio by flow cytometry; assay type: cell-based; conditions: continuous Acetazolamide in culture, 10 days
Experimental: To test IL15-dependent expansion, beads were removed on day 10 and cells were washed. […] The T cell numbers (Table 30) and the change in CD4/CD8 ratio (Table 31) were determined by flow cytometry.

[6] = test system: T cells; assay: CD40L expression of CA2 regulated CD40L constructs in T cells by FACS (dose response, time course); assay type: cell-based; conditions: 24 hours
Source text: CD40L constructs regulated by Carbonic anhydrase DDs were generated and cloned into lentiviral vectors. Purified T cells were thawed and cultured with aCD3 aCD28 Dynabeads (in the ratio of 3 beads to 1 T cell).
The constructs were transduced in T cells the next day. […]

[7] = test system: NIH3T3 cells; assay: Dose response of saturation library constructs to Acetazolamide or Celecoxib, GFP MFI by FACS; assay type: cell-based; conditions: Acetazolamide vs Celecoxib, 24 hours
Source text: The MFI values obtained with Acetazolamide were much higher than the MFIs obtained with Celecoxib treatment.

[8] = Plasma concentration of acetazolamide after single and repeated oral doses; assay type: in vivo, mice; conditions: oral 200 mg/kg, up to 100 hr
[9] = test system: Activated T cells from human donor; assay: Cell surface CAR expression of CA2 regulated CAR constructs (CD19-Fc staining); assay type: cell-based; conditions: T cells, 10 μM ligand overnight, day 7 and 9
Experimental: CA2 DD described herein were operably linked to CARs to generate tunable CAR constructs. Activated T cells from human donor were transduced with 10 μL of lentivirus for indicated constructs. […] Cell surface CAR expression was detected the following day by staining the cells with 10 ug/mL CD19-Fc followed by an anti-human-BV421 conjugated secondary antibody. Histograms were plotted from a live cell gate. Similar experiments were also performed at day 8 and the cells were harvested at day 9. The data are shown in Table 20 as percentage CAR positive cells. The stabilization ratio was also calculated and is included in Table 20 as SR.
Activated T cells from human donor were transduced with 10 μL of lentivirus for indicated constructs. […] Cell surface CAR expression was detected the following day by staining the cells with 10 ug/mL CD19-Fc followed by an anti-human-BV421 conjugated secondary antibody. The percent of ligand induced CAR+ cells are plotted from a live cell gate relative to vehicle treated negative control cells.

[10] = NIH3T3, Celecoxib 0 μM, 24 hours
[11] = NIH3T3, Celecoxib 0.03 μM, 24 hours
[12] = NIH3T3, Celecoxib 0.1 μM, 24 hours
[13] = NIH3T3, Celecoxib 0.3 μM, 24 hours
[14] = NIH3T3, Celecoxib 1 μM, 24 hours
[15] = NIH3T3, Celecoxib 3 μM, 24 hours
[16] = NIH3T3, Celecoxib 10 μM, 24 hours
[17] = NIH3T3, Celecoxib 30 μM, 24 hours
[18] = NIH3T3, Valdecoxib 0 μM, 24 hours
[19] = NIH3T3, Valdecoxib 0.03 μM, 24 hours
[20] = NIH3T3, Valdecoxib 0.1 μM, 24 hours
[21] = NIH3T3, Valdecoxib 0.3 μM, 24 hours
[22] = NIH3T3, Valdecoxib 1 μM, 24 hours
[23] = NIH3T3, Valdecoxib 3 μM, 24 hours
[24] = NIH3T3, Valdecoxib 10 μM, 24 hours
[25] = NIH3T3, Valdecoxib 30 μM, 24 hours
[26] = CD4+ T cells with OT-001990, Acetazolamide 0.01 μM
[27] = CD4+ T cells with OT-001990, Acetazolamide 0.2 μM
[28] = CD4+ T cells with OT-001990, Acetazolamide 0.8 μM
[29] = CD4+ T cells with OT-001990, Acetazolamide 3.1 μM
[30] = CD4+ T cells with OT-001990, Acetazolamide 12.5 μM
[31] = CD4+ T cells with OT-001990, Acetazolamide 50 μM
[32] = CD8+ T cells with OT-001990, Acetazolamide 0.01 μM
[33] = CD8+ T cells with OT-001990, Acetazolamide 0.05 μM
[34] = CD8+ T cells with OT-001990, Acetazolamide 0.2 μM
[35] = CD8+ T cells with OT-001990, Acetazolamide 0.8 μM
[36] = CD8+ T cells with OT-001990, Acetazolamide 3.1 μM
[37] = CD8+ T cells with OT-001990, Acetazolamide 12.5 μM
[38] = CD8+ T cells with OT-001990, Acetazolamide 50 μM

Compound: CA2 (aa 2-260 of WT, L156H, S172C, F178Y, E186D) [LibC000193]
Fold change ([1]; NIH3T3, Acetazolamide 0.03 μM vs DMSO): 1.53
Fold change ([1]; NIH3T3, DMSO (reference), Acetazolamide experiment): 1
Median PE ([2]; NIH3T3, 10 μM Celecoxib): 7428
SR (stabilization ratio) ([2]; NIH3T3, 10 μM Celecoxib vs DMSO): 10.71
Median PE ([2]; NIH3T3, 10 μM Valdecoxib): 6445
SR (stabilization ratio) ([2]; NIH3T3, 10 μM Valdecoxib vs DMSO): 9.3
Median FITC / Median PE ([2]; NIH3T3, Acetazolamide 0.03 μM, 24 hours): 854
Fold change ([2]; NIH3T3, Acetazolamide 0.1 μM vs DMSO): 2.92
Median FITC / Median PE ([2]; NIH3T3, Acetazolamide 0.1 μM, 24 hours): 1628
Fold change ([2]; NIH3T3, Acetazolamide 0.3 μM vs DMSO): 6.59
Median FITC / Median PE ([2]; NIH3T3, Acetazolamide 0.3 μM, 24 hours): 3669
Fold change ([2]; NIH3T3, Acetazolamide 1 μM vs DMSO): 13.34
Median FITC / Median PE ([2]; NIH3T3, Acetazolamide 1 μM, 24 hours): 7445
Fold change ([2]; NIH3T3, Acetazolamide 3 μM vs DMSO): 18.31
Median FITC / Median PE ([2]; NIH3T3, Acetazolamide 3 μM, 24 hours): 10200
MFI, comparative analysis ([2]; NIH3T3, Acetazolamide 10 μM): 11900
Fold change ([2]; NIH3T3, Acetazolamide 10 μM vs DMSO): 21.36
Median FITC / Median PE ([2]; NIH3T3, Acetazolamide 10 μM, 24 hours): 11900
MFI, comparative analysis ([2]; NIH3T3, Acetazolamide 30 μM): 12900
Fold change ([2]; NIH3T3, Acetazolamide 30 μM vs DMSO): 23.16
Median FITC / Median PE ([2]; NIH3T3, Acetazolamide 30 μM, 24 hours): 12900
Med (median fluorescence intensity) [2, 10]: 826
SR (stabilization ratio) [2, 10]: 1
Med (median fluorescence intensity) [2, 11]: 935
SR (stabilization ratio) [2, 11]: 1.13
Med (median fluorescence intensity) [2, 12]: 1005
SR (stabilization ratio) [2, 12]: 1.22
Med (median fluorescence intensity) [2, 13]: 1211
SR (stabilization ratio) [2, 13]: 1.47
Med (median fluorescence intensity) [2, 14]: 2058
SR (stabilization ratio) [2, 14]: 2.49
Med (median fluorescence intensity) [2, 15]: 4283
SR (stabilization ratio) [2, 15]: 5.19
Med (median fluorescence intensity) [2, 16]: 7751
SR (stabilization ratio) [2, 16]: 9.38
Med (median fluorescence intensity) [2, 17]: 11100
SR (stabilization ratio) [2, 17]: 13.44
MFI, comparative analysis, normalized to parental day 1 ([2]; NIH3T3, Celecoxib μM (concentration not given)): 6910.53
MFI, comparative analysis ([2]; NIH3T3, DMSO): 557
Median PE ([2]; NIH3T3, DMSO): 693
SR (stabilization ratio) ([2]; NIH3T3, DMSO (reference)): 1
Median FITC / Median PE ([2]; NIH3T3, DMSO, 24 hours (Acetazolamide experiment)): 557
Med (median fluorescence intensity) [2, 18]: 826
SR (stabilization ratio) [2, 18]: 1
Med (median fluorescence intensity) [2, 19]: 932
SR (stabilization ratio) [2, 19]: 1.13
Med (median fluorescence intensity) [2, 20]: 1013
SR (stabilization ratio) [2, 20]: 1.23
Med (median fluorescence intensity) [2, 21]: 1064
SR (stabilization ratio) [2, 21]: 1.29
Med (median fluorescence intensity) [2, 22]: 1583
SR (stabilization ratio) [2, 22]: 1.92
Med (median fluorescence intensity) [2, 23]: 3667
SR (stabilization ratio) [2, 23]: 4.44
Med (median fluorescence intensity) [2, 24]: 7449
SR (stabilization ratio) [2, 24]: 9.02
Med (median fluorescence intensity) [2, 25]: 9460
SR (stabilization ratio) [2, 25]: 11.45
MFI, comparative analysis, normalized to parental day 1 ([2]; NIH3T3, Valdecoxib μM (concentration not given)): 6641.277
stabilization with varying doses of Valdecoxib or Celecoxib ([2]; NIH3T3 cells, 24 hours, FACS): dose dependent stabilization
GFP protein expression by immunoblot, Acetazolamide ([3]; NIH3T3 cells, 0.3, 1, 3, 10 or 30 μM Acetazolamide): stabilization of GFP with increasing ligand doses
GFP protein expression by immunoblot, Celecoxib or Valdecoxib ([3]; NIH3T3 cells, 1, 3, 10 or 30 μM Celecoxib or Valdecoxib): stabilization of GFP with increasing ligand doses

daily 1 hr Cmax values after repeated doses [8]: do not elevate daily 1 hr Cmax values
Compound: CC(=O)Nc1nnc(S(N)(=O)=O)s1 [Acetazolamide, reference compound]
effects on body weight in efficacy study ([4]; 30, 100 and 200 mg/kg acetazolamide): comparable effects on body weight
body weight changes from dosing ([4]; oral 200 mg/kg, daily repeated doses on days 0-4 and 8-11): begin to level off by the end of the first week of daily doses
T cell expansion [5]: 3.6 fold
CD40L MFI [6, 26]: 112
Percentage CD40L positive cells [6, 26]: 4.13%
Percentage CD40L positive cells ([6]; CD4+ T cells with OT-001990, Acetazolamide 0.05 μM): 5.44%
CD40L MFI [6, 27]: 185
Percentage CD40L positive cells [6, 27]: 10.3%
CD40L MFI [6, 28]: 481
Percentage CD40L positive cells [6, 28]: 45.6%
CD40L MFI [6, 29]: 840
Percentage CD40L positive cells [6, 29]: 69.3%
CD40L MFI [6, 30]: 2783
Percentage CD40L positive cells [6, 30]: 90.3%
CD40L MFI [6, 31]: 3728
Percentage CD40L positive cells [6, 31]: 91.1%
CD40L MFI [6, 32]: 105
Percentage CD40L positive cells [6, 32]: 0.59%
CD40L MFI [6, 33]: 104
Percentage CD40L positive cells [6, 33]: 0.44%
CD40L MFI [6, 34]: 136
Percentage CD40L positive cells [6, 34]: 1.48%
CD40L MFI [6, 35]: 307
Percentage CD40L positive cells [6, 35]: 25.2%
CD40L MFI [6, 36]: 380
Percentage CD40L positive cells [6, 36]: 41.2%
CD40L MFI [6, 37]: 1599
Percentage CD40L positive cells [6, 37]: 77.2%
CD40L MFI [6, 38]: 2184
Percentage CD40L positive cells [6, 38]: 80.7%
MFI values obtained with one ligand compared with the other [7]: much higher
CAR regulation compared between ligands [9]: Greater CAR regulation
